Measured values from US5070096A, “Quinolinoxy phenylsulphonamides” (Bayer Aktiengesellschaft, priority 1986, dated 1991).

Columns and labels:
[1] = test system: lipoxygenase; assay: Inhibition of lipoxygenase (liberation of leukotriene B4 in polymorphonuclear rat leukocytes, calcium ionophore, HPLC); type: cell-based; conditions: LTB4 liberation in rat PMN
Method: (§1) The liberation of leukotriene B4 (LTB4) in polymorphonuclear rat leukocytes (PMN) after addition of substances and calcium ionophore was determined by means of reverse phase HPLC according to Sorgeat, P. et al, Proc. Nat. Acad. Sci. 76, 2148-2152 (1979) as a measure of the lipoxygenase inhibition. The in vivo activity of the compounds was determined using the mouse ear inflammation model according to Young, J. M. et al., J. of Investigative Dermatology 82, 367-371 (1984).

[2] = test system: mouse ear inflammation; assay: Mouse ear inflammation test; type: in vivo
Method: as §1

| SMILES | IC50 value, inhibition of lipoxygenase [1] | Inhibition of inflammation, % ([2]; 100 mg/kg per os) | Inhibition of inflammation, % ([2]; 2 mg/ear topical) |
| --- | --- | --- | --- |
| O=S(=O)(CCCCl)Nc1ccc(OCc2ccc3ccccc3n2)cc1 [Example 76, N-[4-(quinolin-2-yl-methyloxy)phenyl]-3-chloropropanesulphonamide] | 0.046 µg/mL | 37% |  |
| CCCCS(=O)(=O)Nc1ccc(OCc2ccc3ccccc3n2)cc1 [Example 75, N-[4-(quinolin-2-yl-methyloxy)phenyl]butanesulphonamide] | 0.057 µg/mL | 46% | 39% |
| O=S(=O)(Nc1ccc(OCc2ccc3ccccc3n2)cc1)c1ccc(Cl)cc1 [Example 73, N-[4-(quinolin-2-yl-methyloxy)phenyl]-4-chlorobenzenesulphonamide] | 0.1 µg/mL |  |  |
| O=S(=O)(Nc1ccc(Oc2cccc3cccnc23)cc1)c1cccc(C(F)(F)F)c1 [Example 44, N-[4-(quinolin-8-yloxy)phenyl]-3-trifluoromethylbenzenesulphonamide] |  | 38% |  |
| Cc1ccnc2c(Oc3ccc(NS(=O)(=O)c4ccc(Cl)cc4)cc3)cccc12 [Example 58, N-[4-(4-methylquinolin-8-yloxy)phenyl]-4-chlorobenzenesulphonamide] |  |  | 58% |
| O=S(=O)(Nc1ccc(Oc2ccc3cccnc3c2)cc1)c1ccc(Cl)cc1 [Example 53, N-[4-(quinolin-7-yloxy)phenyl]-4-chlorobenzenesulphonamide] | 0.088 µg/mL |  |  |
| O=S(=O)(Nc1ccc(Oc2ccc3cccnc3c2)cc1)c1ccc(F)cc1 [Example 57, N-[4-(quinolin-7-yloxy)phenyl]-4-fluorobenzenesulphonamide] | 0.033 µg/mL |  |  |
| O=S(=O)(Nc1ccc(OCc2ccc3ccccc3n2)cc1)c1cccc(C(F)(F)F)c1 [Example 74, N-[4-(quinolin-2-yl-methyloxy)phenyl]-3-trifluoromethylbenzenesulphonamide] | 0.1 µg/mL |  |  |
| O=S(=O)(Nc1ccc(Oc2ccc3cccnc3c2)cc1)c1cccc(C(F)(F)F)c1 [Example 54, N-[4-(quinolin-7-yloxy)phenyl]-3-trifluoromethylbenzenesulphonamide] | 0.17 µg/mL |  |  |
| CCCC(C)S(=O)(=O)Nc1ccc(OCc2ccc3ccccc3n2)cc1 (centres unmarked) [Example 78, N-[4-(quinolin-2-yl-methyloxy)phenyl]-1-methylbutanesulphonamide] | 0.074 µg/mL |  | 65% |
